For assay [1], the system named is Mycosphaerella arachidis syn. Cercospora arachidicola. Put plainly: Example C1: mixtures against Mycosphaerella arachidis syn. Cercospora arachidicola (brown leaf spot), liquid culture. It counts as cell-based. The following applies: single component, 100-0 scale (100=no disease growth). An excerpt:
(§1) Certain mixture compositions comprising a compound of formula (I) described above may show a synergistic effect. This occurs whenever the action of an active ingredient combination is greater than the sum of the actions of the individual components. The action to be expected E for a given active ingredient combination obeys the so-called COLBY formula and can be calculated as follows (COLBY, S. R. “Calculating synergistic and antagonistic responses of herbicide combination”. Weeds, Vol. 15, pages 20-22; 1967): • ppm=milligrams of active ingredient (=a.i.) per liter of spray mixture • X=% action by active ingredient A) using p ppm of active ingredient • Y=% action by active ingredient B) using q ppm of active ingredient.
(§2) According to COLBY, the expected (additive) action of active ingredients A)+B) using p+q ppm of active ingredient is:
(§3) If the action actually observed (O) is greater than the expected action (E), then the action of the combination is super-additive, i.e. there is a synergistic effect. In mathematical terms, synergism corresponds to a positive value for the difference of (O-E). In the case of purely complementary addition of activities (expected activity), said difference (O-E) is zero. A negative value of said difference (O-E) signals a loss of activity compared to the expected activity.
(§4) Mycelia fragments or conidia suspensions of a fungus prepared either freshly from liquid cultures of the fungus or from cryogenic storage, are directly mixed into nutrient broth. DMSO solutions of the test compound (max. 10 mg/mL) are diluted with 0.025% Tween20 by a factor of 50 and 10 μl of this solution is pipetted into a microtiter plate (96-well format). The nutrient broth containing the fungal spores/mycelia fragments is then added to give an end concentration of the tested compound. The test plates are incubated in the dark at 24° C. and 96% relative humidity. The inhibition of fungal growth is determined photometrically after 2 to 7 days, depending on the pathosystem, and percent antifungal activity relative to the untreated check is calculated.
(§5) Conidia of the fungus from cryogenic storage were directly mixed into nutrient broth (PDB potato dextrose broth). A DMSO solution of the test compounds was placed into a microtiter plate (96-well format) and the nutrient broth containing the fungal spores was added to it.
The following mixture compositions at the reported concentration (in ppm) in tables C1-3 and C1-4 gave the following disease control in this test Mycosphaerella arachidis syn. Cercospora arachidicola (Brown leaf spot of peanut). Fungicidal activity was evaluated on a 100-0 scale (100=no disease growth; 0=well completely covered by mycelium).

Another assay relates to Septoria glycines. Put plainly: Example C3: mixtures against Septoria glycines (brown spot), liquid culture. Format: cell-based. The following applies: single component.
Excerpt: This occurs whenever the action of an active ingredient combination is greater than the sum of the actions of the individual components. The action to be expected E for a given active ingredient combination obeys the so-called COLBY formula and can be calculated as follows (COLBY, S. R. “Calculating synergistic and antagonistic responses of herbicide combination”. Weeds, Vol. 15, pages 20-22; 1967): • ppm=milligrams of active ingredient (=a.i.) per liter of spray mixture • X=% action by active ingredient A) using p ppm of active ingredient • Y=% action by active ingredient B) using q ppm of active ingredient.
as §2, §3
as §4, with “The nutrient broth containing the fungal spores/mycelia fragments is then added to give an end concentration of the tested compound.” left out
Conidia of the fungus harvested from a fresh culture grown on artificial media, were directly mixed into nutrient broth (PDB potato dextrose broth). A DMSO solution of the test compounds was placed into a microtiter plate (96-well format) and the nutrient broth containing the fungal spores was added to it.
Fungicidal activity was evaluated on a 100-0 scale (100=no disease growth; 0=well completely covered by mycelium).

The next assay deals with Corynespora cassiicola. The assay is described as follows: Example C5: mixtures against Corynespora cassiicola (target leaf spot), liquid culture. It counts as cell-based. Conditions: single component.
Excerpt: as §1, §2, §3, §4
Conidia of the fungus from cryogenic storage were directly mixed into nutrient broth (PDB potato dextrose broth). A DMSO solution of the test compounds was placed into a microtiter plate (96-well format) and the nutrient broth containing the fungal spores was added to it. The test plates were incubated at 24 C and the inhibition of growth was determined photometrically after 3-4 days at 620 nm.
The following mixture compositions at the reported concentration (in ppm) in tables C4-3 and C4-4 gave the following disease control in this test (Corynespora cassiicola). Fungicidal activity was evaluated on a 100-0 scale (100=no disease growth; 0=well completely covered by mycelium).

The test system of another assay is Septoria tritici. Put plainly: Example C2: mixtures against Septoria tritici (leaf blotch), liquid culture. The following applies: single component, 100-0 scale. It counts as cell-based.
Excerpt: as §1, §2, §3, §4, §5
The following mixture compositions at the reported concentration (in ppm) in tables C2-3 to C2-5 gave the following disease control in this test Septoria tritici (leaf blotch). Fungicidal activity was evaluated on a 100-0 scale (100=no disease growth; 0=well completely covered by mycelium).

For assay [2], the system named is Glomerella lagenarium syn. Colletotrichum lagenarium. Put plainly: Example C4: mixtures against Glomerella lagenarium syn. Colletotrichum lagenarium (anthracnose), liquid culture. It counts as cell-based. The following applies: single component.
Excerpt: as §1, §2, §3, §4, §5
The following mixture compositions at the reported concentration (in ppm) in tables C4-3 and C4-4 gave the following disease control in this test (Glomerella lagenarium syn. Colletotrichum lagenarium). Fungicidal activity was evaluated on a 100-0 scale (100=no disease growth; 0=well completely covered by mycelium).

The subject of the next assay is Phakopsora pachyrhizi. The assay is described as follows: Example D: preventative activity against Phakopsora pachyrhizi on soybean (whole plants sprayed, leaf disks inoculated). It counts as in vivo. Conditions: Phakopsora pachyrhizi, foliar, applied alone, read-out: Observed Activity (% of untreated).
Excerpt: as §1, §2, §3
Whole soybean plants are treated with the recited active ingredients 4 weeks after planting. 1 day after spraying leaf disks are cut from the first trifoliate leaf. Five repetitions at each rate are conducted. The leaf disks are inoculated with Phakopsora pachyrhizi (Asian soybean rust) one day after treatment. Evaluation of the leaf disks is conducted 11 to 14 days after inoculation and the activity is derived from the relation of the treated vs untreated, infested check. (100=no disease, no damage to the leaf, 0=high infestation, leaf damaged heavily). The rates of the active ingredients used are given in the tables as g active ingredient (a.i.)/ha.

Take `COc1ccnc(C(=O)N[C@@H](C)C(=O)O[C@@H](C)C(c2ccc(F)cc2)c2ccc(F)cc2)c1OC(C)=O` [Florylpicoxamid, reference compound]: the “Activity (%)” value in assay [1] (0.01 ppm) was determined as 50%; in assay [1] (0.02 ppm) it was 90%; in the assay on Septoria glycines (0.01 ppm) it was 0%; with Septoria glycines (0.02 ppm), 0%; with Corynespora cassiicola (0.02 ppm), 0%; with Septoria tritici (0.01 ppm), 70%. Moreover, the “Activity (%)” value was 90% in the assay with Septoria tritici (0.02 ppm) and 20% in assay [2] (0.1 ppm).
Consider `O=C(Nc1ccccc1F)c1ccc(-c2noc(C(F)(F)F)n2)cc1` [N-(2-fluorophenyl)-4-[5-(trifluoromethyl)-1,2,4-oxadiazol-3-yl]benzamide], for which the inhibition at 10 ppm is 0% in the assay with Corynespora cassiicola (Corynespora cassiicola, 10 ppm) and 0% with Septoria tritici (Zymoseptoria tritici, 10 ppm). For the same molecule, the inhibition at 20 ppm with Corynespora cassiicola (Corynespora cassiicola, 20 ppm) came out at 0%; in the assay on Septoria tritici (Zymoseptoria tritici, 20 ppm), 0%.
Take `CCC(=O)Oc1c(OC)ccnc1C(=O)N[C@@H](C)C(=O)O[C@@H](C)[C@@H](C)c1ccccc1C` [[(1S,2S)-1-methyl-2-(o-tolyl)propyl] (2S)-2-[(4-methoxy-3-propanoyloxy-pyridine-2-carbonyl)amino]propanoate, reference compound]: the inhibition at 0.03 ppm worked out at 70% in assay [1] (Mycosphaerella arachidis, 0.03 ppm); 0% with Septoria glycines (Septoria glycines, 0.03 ppm); 0% in the assay on Corynespora cassiicola (Corynespora cassiicola, 0.03 ppm); 50% with Septoria tritici (Zymoseptoria tritici, 0.03 ppm). Further, the inhibition at 0.06 ppm amounted to 0% in the assay on Septoria glycines (Septoria glycines, 0.06 ppm); 0% with Corynespora cassiicola (Corynespora cassiicola, 0.06 ppm); 70% with Septoria tritici (Zymoseptoria tritici, 0.06 ppm).
As to `O=C1c2ccccc2C(=O)N1SC(Cl)(Cl)Cl` [folpet, reference compound], in the assay on Phakopsora pachyrhizi (450 g/ha), the inhibition at 450 g/ha was 4%. The inhibition at 900 g/ha in the assay with Phakopsora pachyrhizi (900 g/ha) came out at 13%. Moreover, the inhibition at 0.3 ppm in assay [1] (Mycosphaerella arachidis, 0.3 ppm) is 20%; in the assay on Septoria glycines (Septoria glycines, 0.3 ppm, 100-0 scale (100=no disease growth), read-out: Activity (%)), 0%; with Septoria tritici (Zymoseptoria tritici, 0.3 ppm, read-out: Activity (%)), 20%; in assay [2] (Colletotrichum orbiculare, 0.3 ppm) it was 70%. Further, the inhibition at 0.1 ppm in the assay on Septoria glycines (Septoria glycines, 0.1 ppm, 100-0 scale (100=no disease growth), read-out: Activity (%)) was 0%; in assay [2] (Colletotrichum orbiculare, 0.1 ppm), 20%.

The record behind these values is US12532884B2, “Fungicidal compositions” (SYNGENTA CROP PROTECTION AG, priority 2020, dated 2026).
